Molecular target: T1, TRPM8 (Homo sapiens, UniProt Q7Z2W7)
T1 construct: cold receptors express TRPM8 channels, which are sensitive to innocuous cooling; from tissue; host or cells: eye (corneal cold thermoreceptor nerve endings) of living human subjects
Assay: Menthol vs placebo symptom response on 0-10 Cooling Scale, escalating menthol concentrations (Example 1)
Type: in vivo
Settings: for Is Menthol symptom response significantly higher than placebo? (TSS): Wilcox signed rank test, 95% confidence; for Duration of symptoms (furthest time point post-dose with symptom score higher than 0), mean: average of all concentrations
Protocol: 6 Healthy and 4 Dry Eye individuals participated in a 2-day internal pilot study. Each participant underwent randomized eye, contralateral, 15 μl pipette-instilled dosing of menthol and placebo (Sterile PBS, pH 7.2), across an escalating range of Menthol concentrations. The following dilutions (USP-grade L-Menthol in Sterile PBS, pH 7.2) were initially tested, in the following order (concentrations are w/v):
Post dose, a 0-10 Cooling Scale questionnaire, where 0 represents “No cooling sensation”, and 10 denotes “Maximum cooling sensation”, was asked at the following time points (OD, OS separate; OD represents your right eye and OS represents your left eye): Upon instillation, 30 seconds, 1 minute, 2 minutes, 3 minutes, and 4 minutes—post dose. At least 45 minutes was allowed between each successive dosing to allow for re-sensitization of TRPM8, as well as to allow any analgesic effects of μ-opioid activity to diminish. At the beginning of Visit 1, symptom questionnaires and Ocular Surface Disease Index (OSDI) were asked. After all concentrations of menthol had been tested, Fluorescein staining and Anesthetized Schirmer's test were performed (1 hour washout). The Schirmer test, first described in 1903 by Schirmer, is still the method most commonly used to evaluate aqueous tear production (Schirmer Graefes Arch Clin Exp Ophthalmol. 1903; 56:197-291,1903).
The primary parameter used was Total Symptom Sum, or TSS (sum of all time points), in active eye vs placebo eye. The secondary parameter used was “Upon instillation” Cooling score. FIG. 1 illustrates a frequency distribution of all symptom scores, based on a histogram of the data. […] As such, nonparametric statistical analysis was used to determine if differences exist between treatments (menthol vs placebo). In the following results, a Wilcox Signed Rank test was employed to test the null hypothesis that Menthol and Placebo elicit statistically similar symptom scores on the Cooling Scale. If TTest Stat<TCritical Value. If so, then the null hypothesis can be rejected with 95% confidence.
All concentrations tested are shown in Table 2, below, along with statistical significance indicated for either group according to a Wilcox Signed Rank Test (Total Symptom Sum, Menthol vs Placebo): […]

[1] = Dry Eye Population, Menthol 0.000050 (w/v)
[2] = Dry Eye Population, Menthol 0.000075 (w/v)
[3] = Dry Eye Population, Menthol 0.0001 (w/v)
[4] = Dry Eye Population, Menthol 0.001 (w/v)
[5] = Healthy Population, Menthol 0.001 (w/v)

T1 sequence (Q7Z2W7 whole entry): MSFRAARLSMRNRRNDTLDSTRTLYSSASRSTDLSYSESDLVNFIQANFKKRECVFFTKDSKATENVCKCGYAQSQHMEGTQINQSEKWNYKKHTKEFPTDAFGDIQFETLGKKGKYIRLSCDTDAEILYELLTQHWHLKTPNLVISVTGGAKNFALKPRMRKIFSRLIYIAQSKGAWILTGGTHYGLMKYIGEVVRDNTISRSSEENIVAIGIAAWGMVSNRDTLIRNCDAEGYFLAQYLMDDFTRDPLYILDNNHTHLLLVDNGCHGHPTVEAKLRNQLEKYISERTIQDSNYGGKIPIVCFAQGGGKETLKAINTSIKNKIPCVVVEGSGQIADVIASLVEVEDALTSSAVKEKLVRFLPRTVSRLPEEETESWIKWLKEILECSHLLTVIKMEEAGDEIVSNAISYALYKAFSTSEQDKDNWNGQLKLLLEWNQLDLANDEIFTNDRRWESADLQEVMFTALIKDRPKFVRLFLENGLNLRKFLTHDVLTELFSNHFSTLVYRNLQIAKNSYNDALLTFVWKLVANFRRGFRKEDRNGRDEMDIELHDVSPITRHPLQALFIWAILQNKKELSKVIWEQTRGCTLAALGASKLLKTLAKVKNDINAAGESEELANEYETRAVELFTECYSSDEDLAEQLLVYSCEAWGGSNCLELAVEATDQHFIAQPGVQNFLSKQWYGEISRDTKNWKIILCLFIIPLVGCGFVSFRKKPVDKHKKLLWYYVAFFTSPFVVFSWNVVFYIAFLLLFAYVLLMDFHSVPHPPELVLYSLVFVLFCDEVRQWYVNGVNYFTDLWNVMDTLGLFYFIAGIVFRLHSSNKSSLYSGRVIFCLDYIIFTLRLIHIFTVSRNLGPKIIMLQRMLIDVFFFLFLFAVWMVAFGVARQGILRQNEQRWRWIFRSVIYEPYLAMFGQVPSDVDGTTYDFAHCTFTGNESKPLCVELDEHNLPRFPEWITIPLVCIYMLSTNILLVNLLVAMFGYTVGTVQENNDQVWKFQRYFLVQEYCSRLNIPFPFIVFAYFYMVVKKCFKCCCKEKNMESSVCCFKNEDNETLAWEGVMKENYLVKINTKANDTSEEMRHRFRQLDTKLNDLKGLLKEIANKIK

## CC(C)[C@@H]1CC[C@@H](C)C[C@H]1O [Menthol, L-Menthol]
Dry Eye Population, Menthol 0.000001 (w/v)
  % of population that had significantly higher menthol TSS than placebo TSS: 0%
Dry Eye Population, Menthol 0.00001 (w/v)
  % of population that had significantly higher menthol TSS than placebo TSS: 0%
Dry Eye Population, Menthol 0.000025 (w/v)
  % of population that had significantly higher menthol TSS than placebo TSS: 0%
[1]
  % of population that had significantly higher menthol TSS than placebo TSS: 75%
  Is Menthol symptom response significantly higher than placebo? (TSS): YES
[2]
  % of population that had significantly higher menthol TSS than placebo TSS: 25%
  Is Menthol symptom response significantly higher than placebo? (TSS): YES
[3]
  % of population that had significantly higher menthol TSS than placebo TSS: 25%
  Is Menthol symptom response significantly higher than placebo? (TSS): YES
[4]
  % of population that had significantly higher menthol TSS than placebo TSS: 75%
  Is Menthol symptom response significantly higher than placebo? (TSS): YES
Dry Eye, p=0.004 vs Normal
  Duration of symptoms (furthest time point post-dose with symptom score higher than 0), mean: 2.58 min
Healthy Population, Menthol 0.000001 (w/v)
  % of population that had significantly higher menthol TSS than placebo TSS: 0%
Healthy Population, Menthol 0.00001 (w/v)
  % of population that had significantly higher menthol TSS than placebo TSS: 0%
Healthy Population, Menthol 0.000025 (w/v)
  % of population that had significantly higher menthol TSS than placebo TSS: 0%
Healthy Population, Menthol 0.000050 (w/v)
  % of population that had significantly higher menthol TSS than placebo TSS: 16%
Healthy Population, Menthol 0.000075 (w/v)
  % of population that had significantly higher menthol TSS than placebo TSS: 16%
Healthy Population, Menthol 0.0001 (w/v)
  % of population that had significantly higher menthol TSS than placebo TSS: 0%
[5]
  % of population that had significantly higher menthol TSS than placebo TSS: 50%
  Is Menthol symptom response significantly higher than placebo? (TSS): YES
Menthol 0.001%
  Correlation score between Menthol TSS and 4-Symptom Questionnaire: 0.64
  Correlation score between Menthol TSS and Fluorescein Staining (Corneal): 0.50
  Correlation score between Menthol TSS and OSDI: 0.79
  Menthol TSS, Dry Eye vs Normal: significantly higher than Normal
Normal
  Duration of symptoms (furthest time point post-dose with symptom score higher than 0), mean: 1.57 min
Any concentrations tested, FIG. 3
  "Upon Instillation" menthol symptom response, Normal vs Dry Eye: No significant differences
Concentrations of 0.0001% and up, FIG. 2
  Symptom response to menthol (TSS), dry eye subjects vs normal: significantly higher in dry eye subjects
From Table 2
  Lower concentration at which Dry Eye population can differentiate Menthol from Placebo compared with Normal: 50 fold

— US20180252700A1, “SCREENING AGENTS IN DRY EYE DISEASE” (Ora, Inc., priority 2016, published 2018)
